In patent publication US12419855B2, “Compositions comprising cannabinoid ions that are dissolved in glycerol” (Natural Extraction Systems, LLC, priority 2019, dated 2025):

How the values were obtained:
[1] = tested on: active seizures in an epileptic Entlebucher Mountain Dog; test: Arresting active seizures in canine; assay type: in vivo; conditions: single oral dose of 0.5-1.0 mg/kg in a formulation prepared according to Example 1
[2] = Solubility in ethanol:glycerol; assay type: physicochemical; conditions: in 25:75 by volume ethanol:glycerol; stated as lower than the 25 grams per liter of cannabidiol anion in the formulation
Excerpt: Cannabidiol is deprotonated in 0.5 molar potassium hydroxide in 190 proof ethanol to produce cannabidiol anion (2-(6-isopropenyl-3-methylcyclohex-2-en-1-yl)-3-hydroxy-5-pentylbenzene-1-oxide).

chronic insomnia = test: Efficacy against insomnia in humans; assay type: in vivo; conditions: adult human with chronic insomnia; approximately 25 milligrams in a formulation prepared according to Example 3; self-reported

C=C(C)C1CCC(C)=CC1c1c(O)cc(CCCCC)cc1O (centres unmarked) [cannabidiol anion, 2-(6-isopropenyl-3-methylcyclohex-2-en-1-yl)-3-hydroxy-5-pentylbenzene-1-oxide]
arrest of active seizures [1]: both consistently and instantaneously arrested active seizures
seizure duration and severity [1]: reduced seizure duration and severity

C=C(C)[C@@H]1CCC(C)=C[C@H]1c1c(O)cc(CCCCC)cc1O [molecular cannabidiol, cannabidiol]
solubility of molecular cannabidiol [2]: < 25 grams per liter

CCCCCc1cc(O)c(CC=C(C)CCC=C(C)C)c(O)c1 [cannabigerol anion, 2-(3,7-dimethylocta-2,6-diene-1-yl)-3-hydroxy-5-pentylbenzene-1-oxide]
onset time of sedative effect (chronic insomnia): less than five
sedative effect on insomnia (chronic insomnia): effective at treating the insomnia
